{
  "source": "patent US9018214B2",
  "about": "“Bicyclic heterocycle compounds and their uses in therapy” (Astex Therapeutics Limited, priority 2011, dated 2015)",
  "key": {"[1]": {"target": "BIR3 domain of human XIAP (residues 252-350) (Homo sapiens (Human), UniProt P98170)", "experiment": "XIAP in vitro competitive displacement binding assay (fluorescence polarization)", "details": "for IC50: read-out: IC50 or PI Xiap: IC50"}, "[2]": {"target": "BIR3 domain of human cIAP-1 (residues 267-363) (Homo sapiens (Human), UniProt Q13490)", "experiment": "cIAP-1 in vitro competitive displacement binding assay (fluorescence polarization; Probe A AVPIK(5&6FAM)-amide or Probe B AbuRPFK(5&6FAM)-amide)"}, "[3]": {"details": "Probe B AbuRPFK(5&6FAM)-amide, read-out: IC50 or PI cIAP1: IC50"}},
  "note": "Structures can show the parent of a compound that is named as a salt. Where two headings read alike, the source gives them in different places.",
  "data": [
    {"smiles": "COC[C@H]1CN[C@H](C)CN1CC(=O)N1CC(C)(C)c2cc(=O)n(C)cc21", "note": "[Example 66, 1-[2-((2R,5R)-2-Methoxymethyl-5-methyl-piperazin-1-yl)-acetyl]-3,3,6-trimethyl-1,2,3,6-tetrahydro-pyrrolo[2,3-c]pyridin-5-one hydrochloride salt]", "values": [
      {"measurement": "inhibition at 10 µM", "setting": "[1]; 1 h, @ 10 μM, read-out: IC50 or PI Xiap: PI", "value": 44, "unit": "%"},
      {"measurement": "inhibition at 3 µM", "setting": "[2]; 3 h, Probe B, @ 3 μM, read-out: IC50 or PI cIAP1: PI", "value": 53, "unit": "%"}
    ]},
    {"smiles": "COC[C@H]1CN[C@H](C)CN1CC(=O)N1CC(C)(C)c2cc(=O)n(CC(C)C)cc21", "note": "[Example 73, 6-Isobutyl-1-[2-((2R,5R)-2-methoxy-methyl-5-methyl-piperazin-1-yl)-acetyl]-3,3-dimethyl-1,2,3,6-tetrahydro-pyrrolo[2,3-c]pyridin-5-one hydrochloride salt]", "values": [
      {"measurement": "inhibition at 3 µM", "setting": "[1]; 1 h, @ 3 μM, read-out: IC50 or PI Xiap: PI", "value": 46, "unit": "%"},
      {"measurement": "inhibition at 1 µM", "setting": "[2]; 3 h, Probe B, @ 1 μM, read-out: IC50 or PI cIAP1: PI", "value": 60, "unit": "%"}
    ]},
    {"smiles": "COC[C@H]1CN[C@H](C)CN1CC(=O)N1CC(C)(C)c2cnc(Nc3ccccc3)cc21", "note": "[Example 81, 1-(3,3-Dimethyl-6-phenylamino-2,3-dihydro-pyrrolo[3,2-c]pyridin-1-yl)-2-((2R,5R)-2-methoxymethyl-5-methyl-piperazin-1-yl)-ethanone hydrochloride salt]", "values": [
      {"measurement": "inhibition at 300 µM", "setting": "[1]; 1 h, @ 300 μM, read-out: IC50 or PI Xiap: PI", "value": 51, "unit": "%"},
      {"measurement": "inhibition at 100 µM", "setting": "[2]; 3 h, Probe B, @ 100 μM, read-out: IC50 or PI cIAP1: PI", "value": 36, "unit": "%"}
    ]},
    {"smiles": "COC[C@H]1CN[C@H](C)CN1CC(=O)N1CC(C)(C)c2cnc(N(C)c3ccccc3)cc21", "note": "[Example 84, 1-[3,3-Dimethyl-6-(methyl-phenyl-amino)-2,3-dihydro-pyrrolo[3,2-c]pyridin-1-yl]-2-((2R,5R)-2-methoxymethyl-5-methyl-piperazin-1-yl)-ethanone hydrochloride salt]", "values": [
      {"measurement": "IC50", "setting": "[1]", "value": 8800, "unit": "nM"},
      {"measurement": "IC50", "setting": "[2]", "value": "< 10000", "unit": "nM"},
      {"measurement": "IC50", "setting": "[2]; [3]", "value": 1300, "unit": "nM"}
    ]},
    {"smiles": "C[C@@H]1CN(CC(=O)N2CCc3ccccc32)CCN1", "note": "[Example 85, 1-(2,3-Dihydro-1H-indol-1-yl)-2-[(3R)-3-methylpiperazin-1-yl]ethan-1-one, hydrochloride salt]", "values": [
      {"measurement": "inhibition at 500 µM", "setting": "[1]; 1 h, @ 500 μM, read-out: IC50 or PI Xiap: PI", "value": 52, "unit": "%"},
      {"measurement": "inhibition at 250 µM", "setting": "[2]; 3 h, Probe A, @ 250 μM, read-out: IC50 or PI cIAP1: PI", "value": 45, "unit": "%"}
    ]},
    {"smiles": "CC[C@H]1CN[C@H](C)CN1CC(=O)N1CC(C)(C)c2cnc(Cn3cccn3)cc21", "note": "[Example 95, 1-[3,3-Dimethyl-6-(1H-pyrazol-1-ylmethyl)-1H,2H,3H-pyrrolo[3,2-c]pyridin-1-yl]-2-[(2S,5R)-2-ethyl-5-methylpiperazin-1-yl]ethan-1-one]", "values": [
      {"measurement": "IC50", "setting": "[1]", "value": 3100, "unit": "nM"},
      {"measurement": "IC50", "setting": "[2]; [3]", "value": 680, "unit": "nM"}
    ]},
    {"smiles": "COC[C@H]1CN[C@H](C)CN1CC(=O)N1CC(C)(C)c2cnc(N3CCCC3=O)cc21", "note": "[Example 102, 1-(1-{2-[(2R,5R)-2-(Methoxymethyl)-5-methylpiperazin-1-yl]acetyl}-3,3-dimethyl-1H,2H,3H-pyrrolo[3,2-c]pyridin-6-yl)pyrrolidin-2-one, hydrochloride salt]", "values": [
      {"measurement": "IC50", "setting": "[1]", "value": 3200, "unit": "nM"},
      {"measurement": "IC50", "setting": "[2]", "value": "< 1000", "unit": "nM"},
      {"measurement": "IC50", "setting": "[2]; [3]", "value": 650, "unit": "nM"}
    ]},
    {"smiles": "COC[C@H]1CN[C@H](C)CN1CC(=O)N1CC(C)(C)c2ccc(C#N)cc21", "note": "[Example 117, 1-{2-[(2R,5R)-2-(Methoxymethyl)-5-methylpiperazin-1-yl]acetyl}-3,3-dimethyl-2,3-dihydro-1H-indole-6-carbonitrile hydrochloride]", "values": [
      {"measurement": "IC50", "setting": "[1]", "value": 790, "unit": "nM"},
      {"measurement": "IC50", "setting": "[2]; [3]", "value": 710, "unit": "nM"}
    ]},
    {"smiles": "CCC1(C)CN(C(=O)CN2C[C@@H](C)NC[C@@H]2COC)c2cc(Cl)ccc21", "note": "(stereo partly drawn) [Example 123, 1-(6-Chloro-3-ethyl-3-methyl-2,3-dihydro-1H-indol-1-yl)-2-[(2R,5R)-2-(methoxymethyl)-5-methylpiperazin-1-yl]ethan-1-one hydrochloride]", "values": [
      {"measurement": "IC50", "setting": "[1]", "value": 1300, "unit": "nM"},
      {"measurement": "IC50", "setting": "[2]; [3]", "value": 520, "unit": "nM"}
    ]},
    {"smiles": "COC[C@H]1CN[C@H](C)CN1CC(=O)N1CC(C)(C)c2cnc(-c3cnn(C)c3)cc21", "note": "[Example 124, 1-[3,3-Dimethyl-6-(1-methyl-1H-pyrazol-4-yl)-1H,2H,3H-pyrrolo[3,2-c]pyridin-1-yl]-2-[(2R,5R)-2-(methoxymethyl)-5-methylpiperazin-1-yl]ethan-1-one dihydrochloride]", "values": [
      {"measurement": "IC50", "setting": "[1]", "value": 4000, "unit": "nM"},
      {"measurement": "IC50", "setting": "[2]; read-out: IC50 or PI cIAP1: IC50", "value": 550, "unit": "nM"}
    ]},
    {"smiles": "COC[C@H]1CN[C@H](C)CN1CC(=O)N1CC(C)(C)c2ccc(CN3CCCC3=O)cc21", "note": "[Example 125, 1-[(1-{2-[(2R,5R)-2-(Methoxymethyl)-5-methylpiperazin-1-yl]acetyl}-3,3-dimethyl-2,3-dihydro-1H-indol-6-yl)methyl]pyrrolidin-2-one hydrochloride]", "values": [
      {"measurement": "IC50", "setting": "[1]", "value": 29000, "unit": "nM"},
      {"measurement": "IC50", "setting": "[2]; [3]", "value": 730, "unit": "nM"}
    ]},
    {"smiles": "COC[C@H]1CN[C@H](C)CN1CC(=O)N1CC(C)(COC)c2ccc(Br)cc21", "note": "(stereo partly drawn) [Example 127, 1-[6-Bromo-3-(methoxymethyl)-3-methyl-2,3-dihydro-1H-indol-1-yl]-2-[(2R,5R)-2-(methoxymethyl)-5-methylpiperazin-1-yl]ethan-1-one hydrochloride]", "values": [
      {"measurement": "IC50", "setting": "[1]", "value": 1200, "unit": "nM"},
      {"measurement": "IC50", "setting": "[2]; [3]", "value": 350, "unit": "nM"}
    ]},
    {"smiles": "COC[C@H]1CN[C@H](C)CN1CC(=O)N1CC(C)(C(=O)OC)c2ccc(Br)cc21", "note": "(stereo partly drawn) [Example 129, Methyl 6-bromo-1-{2-[(2R,5R)-2-(methoxymethyl)-5-methylpiperazin-1-yl]acetyl}-3-methyl-2,3-dihydro-1H-indole-3-carboxylate hydrochloride]", "values": [
      {"measurement": "IC50", "setting": "[1]", "value": 1300, "unit": "nM"},
      {"measurement": "IC50", "setting": "[2]; [3]", "value": 480, "unit": "nM"}
    ]},
    {"smiles": "COC[C@H]1CN[C@H](C)CN1CC(=O)N1CC(C)(C)c2cc(C)c(C#N)cc21", "note": "[Example 134, 1-{2-[(2R,5R)-2-(Methoxymethyl)-5-methylpiperazin-1-yl]acetyl}-3,3,5-trimethyl-2,3-dihydro-1H-indole-6-carbonitrile]", "values": [
      {"measurement": "IC50", "setting": "[1]", "value": 780, "unit": "nM"},
      {"measurement": "IC50", "setting": "[2]; [3]", "value": 590, "unit": "nM"}
    ]},
    {"smiles": "C[C@@H]1CN(CC(=O)N2CC(C)(C)c3ccc(Cl)cc32)[C@@H](Cn2cccn2)CN1", "note": "[Example 138, 1-(6-Chloro-3,3-dimethyl-2,3-dihydro-1H-indol-1-yl)-2-[(2R,5R)-5-methyl-2-(1H-pyrazol-1-ylmethyl)piperazin-1-yl]ethan-1-one hydrochloride]", "values": [
      {"measurement": "IC50", "setting": "[1]", "value": 640, "unit": "nM"},
      {"measurement": "IC50", "setting": "[2]; [3]", "value": 330, "unit": "nM"}
    ]},
    {"smiles": "C[C@@H]1CN(CC(=O)N2C[C@@](C)(c3ccccc3)c3ccc(C#N)cc32)[C@@H](Cn2cccn2)CN1", "note": "[Example 154, (3S)-3-Methyl-1-{2-[(2R,5R)-5-methyl-2-(1H-pyrazol-1-ylmethyl)piperazin-1-yl]acetyl}-3-phenyl-2,3-dihydro-1H-indole-6-carbonitrile]", "values": [
      {"measurement": "IC50", "setting": "[1]", "value": 130, "unit": "nM"},
      {"measurement": "IC50", "setting": "[2]; [3]", "value": 170, "unit": "nM"}
    ]},
    {"smiles": "C[C@@H]1CN(CC(=O)N2C[C@](C)(c3ccccc3)c3ccc(C#N)cc32)[C@@H](Cn2cccn2)CN1", "note": "[Example 155, (3R)-3-Methyl-1-{2-[(2R,5R)-5-methyl-2-(1H-pyrazol-1-ylmethyl)piperazin-1-yl]acetyl}-3-phenyl-2,3-dihydro-1H-indole-6-carbonitrile]", "values": [
      {"measurement": "IC50", "setting": "[1]", "value": 72, "unit": "nM"},
      {"measurement": "IC50", "setting": "[2]; [3]", "value": 260, "unit": "nM"}
    ]},
    {"smiles": "C[C@@H]1CN(CC(=O)N2CC(C)(C)c3ccc(C#N)cc32)CCN1", "note": "[Example 162, 3,3-Dimethyl-1-{2-[(3R)-3-methylpiperazin-1-yl]acetyl}-2,3-dihydro-1H-indole-6-carbonitrile]", "values": [
      {"measurement": "IC50", "setting": "[1]", "value": 5500, "unit": "nM"},
      {"measurement": "IC50", "setting": "[2]; [3]", "value": 7900, "unit": "nM"}
    ]},
    {"smiles": "COC[C@H]1CN[C@H](C)CN1CC(=O)N1C[C@](C)(COC)c2ccc(Br)cc21", "note": "[Example 168, 1-[(3R)-6-Bromo-3-(methoxymethyl)-3-methyl-2,3-dihydro-1H-indol-1-yl]-2-[(2R,5R)-2-(methoxymethyl)-5-methylpiperazin-1-yl]ethan-1-one hydrochloride]", "values": [
      {"measurement": "IC50", "setting": "[1]", "value": 4000, "unit": "nM"},
      {"measurement": "IC50", "setting": "[2]; [3]", "value": 890, "unit": "nM"}
    ]},
    {"smiles": "COC[C@H]1CN[C@H](C)CN1CC(=O)N1C[C@@](C)(COC)c2ccc(Br)cc21", "note": "[Example 169, 1-[(3S)-6-Bromo-3-(methoxymethyl)-3-methyl-2,3-dihydro-1H-indol-1-yl]-2-[(2R,5R)-2-(methoxymethyl)-5-methylpiperazin-1-yl]ethan-1-one hydrochloride]", "values": [
      {"measurement": "IC50", "setting": "[1]", "value": 920, "unit": "nM"},
      {"measurement": "IC50", "setting": "[2]; [3]", "value": 320, "unit": "nM"}
    ]}
  ]
}
